The values below come from patent publication US9618511B2, “Methods and compositions for treating alzheimer's disease” (Eleanore Bennett Charitable Trust #2, priority 2008, dated 2017).

Test [1] relates to PDK-dependent activation of Akt1. The experiment in a line: In vitro PDK-dependent Akt1 phosphorylation and activity assay (immunoprecipitated PDK1 and Akt1, GSK-3 fusion protein substrate). Format: biochemical, human (SH-SY5Y, HEK293), mouse (C2C12). The following applies: for effect on PDK-stimulated Akt activity / Akt phosphorylation: 10 μM; for relative effect of amyloid preparations (monomer, ADDL, fibril) on PDK-dependent Akt activation: comparison of preparations, SH-SY5Y-derived kinases. On the procedure:
Akt1 was immunoprecipitated (IP) overnight from 100 μg of the human brain sample or from C2C12 myotubes infected with adenovirus encoding Aβ using a 1:100 dilution of goat anti-Akt1 antibody. The following morning, 40 μl of a 50% slurry of protein G-Agarose (PGA) (Roche Applied Science) was added for an additional 1.5 hours. The beads were washed twice with wash buffer [1× phosphate buffered saline (PBS), 0.5% NP-40, 0.1 mM Na3VO4] and twice with kinase buffer [25 mM Tris (pH 7.5), 2 mM DTT, 0.1 mM Na3VO4, 10 mM MgCl2]. ATP (200 μM) and GSK-3 fusion protein (1 μg/50 μl) were added in the presence of kinase buffer, and the final reaction (50 μl) was incubated 30 minutes at 30° C. The reaction was stopped by adding 40 μl of Laemmli buffer. 20 μl of sample was loaded onto a 10% polyacrylamide gel for fractionation and western detection development.
Immunoprecipitates (IPs) of PDK1 and Akt were prepared from 100 μg of either SH-SY5Y, C2C12 myotubes or from insulin-treated cultures. ATP (200 μM), GSK-3 fusion protein (1 μg/50 μl) and kinase buffer were added to the reaction. Various Aβ peptides were finally added at 0.01, 0.1, 1, 5, 10, 20 μM. Akt activity level was otherwise determined as above.

Test [2] addresses T1, SGK (serum/glucocorticoid regulated kinase) activated by PDK (Mus musculus, UniProt Q9Z2A0).
T1 construct: Stimulated PDK was IP from insulin-treated C2C12 myotubes; endogenous in cells; host or cells: PDK from insulin-treated C2C12 myotubes
T1 sequence (Q9Z2A0 1-559): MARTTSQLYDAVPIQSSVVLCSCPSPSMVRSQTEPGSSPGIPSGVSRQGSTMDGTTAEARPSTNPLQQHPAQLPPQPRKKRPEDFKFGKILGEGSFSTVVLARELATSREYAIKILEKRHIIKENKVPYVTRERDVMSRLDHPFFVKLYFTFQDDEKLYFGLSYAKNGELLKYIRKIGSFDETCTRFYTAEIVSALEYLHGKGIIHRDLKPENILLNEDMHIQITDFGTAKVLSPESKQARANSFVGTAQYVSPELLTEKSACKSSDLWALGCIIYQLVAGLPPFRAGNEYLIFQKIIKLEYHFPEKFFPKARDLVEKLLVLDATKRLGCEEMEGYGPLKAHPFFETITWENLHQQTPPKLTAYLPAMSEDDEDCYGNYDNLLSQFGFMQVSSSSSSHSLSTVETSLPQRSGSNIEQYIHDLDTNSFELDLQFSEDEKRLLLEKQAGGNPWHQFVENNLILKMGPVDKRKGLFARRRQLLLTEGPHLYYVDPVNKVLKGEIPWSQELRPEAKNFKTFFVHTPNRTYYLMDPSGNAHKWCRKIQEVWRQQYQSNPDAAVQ
Description: PDK-stimulated SGK activity, in vitro kinase assay. The class given is biochemical. The following applies: 10 μM. An excerpt:
Another kinase, termed SGK (serum/glucocorticoid regulated kinase), is also activated by PDK. Similar to Akt, SGK has a PH domain and phosphorylates GSK-3 α/β (Kobayashi, T., Deak, M., Morrice, N., and Cohen, P., 1999, Characterization of the structure and regulation of two novel isoforms of serum- and glucocorticoid-induced protein kinase, Biochem J 344 Pt 1:189-197, and Tessier, M., and Woodgett, J. R., 2006, Serum and glucocorticoid-regulated protein kinases: variations on a theme, J Cell Biochem 98:1391-1407). If Aβ inhibits PH-mediated activations of Akt independent of PIP3, it is predicted to affect this mechanism too. Indeed, in FIG. 7D, ADDL-containing Aβ preparations inhibited PDK-stimulated SGK activity (lane 7 vs. 6 and 5). […] This enhanced activity was not however, interrupted by Aβ (10 μM, lane 4 vs. 3). Lastly, another kinase that converges to phosphorylate GSK, PKA (Grimes, C. A., and Jope, R. S., 2001, The multifaceted roles of glycogen synthase kinase 3beta in cellular signaling, Prog Neurobiol 65:391-426; Li, M., Wang, X., Meintzer, M. K., Laessig, T., Birnbaum, M. J., and Heidenreich, K. A., 2000, Cyclic AMP promotes neuronal survival by phosphorylation of glycogen synthase kinase 3beta, Mol Cell Biol 20:9356-9363), was tested. […] Thus, the mechanism of Aβ inhibition of Akt activation is specific to PDK-like kinases. […]

Test [3] deals with C2C12 myotubes. The experiment in a line: Extracellular peptide or insulin treatment of C2C12 myotubes, western blot of Akt signaling. The class given is cell-based, mouse. On the procedure: The prior cell-based and in vitro experiments are relevant to […] Aβ effects. To determine the specificity of Akt inhibition by […] Aβ, C2C12 myotubes were cultured, and treated with extracellular Aβ25-35, Aβ35-25, Aβ1-42 and Aβ42-1 for 24 hours. In the last 30 minutes before harvest, insulin was added (0.1 μg/ml). While p-Akt (Ser473) and p-GSK-3 α/β levels were increased by insulin treatment (FIG. 9C, lane 2 vs. 1), they were not affected by any of the Aβ treatments. […] There were also no significant changes in p-Akt (Ser473) levels (data not shown). […] PDK itself is subject to phosphorylation (e.g., at Ser 241) and several authors feel that it is constitutively phosphorylated and thus ‘primed’ (Casamayor, A., Morrice, N. A., and Alessi, D. R., 1999, Phosphorylation of Ser-241 is essential for the activity of 3-phosphoinositide-dependent protein kinase-1: identification of five sites of phosphorylation in vivo, Biochem J 342 (Pt 2):287-292). The experiments described herein indicate that p-PDK levels are constitutively high in C2C12 cells and not boosted further by insulin action (FIG. 9E, top). p-PDK levels were not modulated by extracellular (FIG. 9E lower panel) or intracellular Aβ expression (not shown).
In FIG. 9C C2C12 myotubes were bath exposed to AP25-35, reverse AP35-25, AP1-42 and reverse Aβ42-1 peptides for 24 hours before treatment with insulin (0.1 μg/ml, 15 min) Whole cell extracts were subjected to Western analysis for p-Akt (Ser473) (Akt activation) and total Akt levels (top) as well as for endogenous levels of pGSK-3a/p, indicative of Akt activity, and total GSK-3β (lower two blots). […] The increase was not affected by pre-treatment with extracellular AR.
In FIG. 9D C2C12 myotube cultures were exposed to increasing doses of A[i1-42 (0, 10 and 25 μM) for 2 hours before treatment with insulin (0, 20, 100 and 500 ng/ml) for 15 min Harvested cell extracts were used for western blot for p-Akt (Thr308).
(In general: A western blot detects proteins with antibodies after separation by electrophoresis.)

Entries after “also recorded” stand apart in the source; their conditions may differ.

On to `CCCCCCCCCCCCCCCC(=O)OC[C@H](COP(=O)(O)OC1[C@H](O)[C@H](OP(=O)(O)O)C(OP(=O)(O)O)[C@H](OP(=O)(O)O)[C@H]1O)OC(=O)CCCCCCCCCCCCCCC` (stereo partly shown) [PIP3, phosphatidylinositol-tris-3,4,5-phosphate, dipalmitoyl], for which the “PDK-dependent Akt1 phosphorylation and activity” value in test [1] (50 nM added, PP2A-treated Akt) was “extra increase”.

Turning to “ADDL: Aβ-derived diffusible ligands, oligomer-enriched Aβ42 preparation (24 to 48 hr at 4° C.)”, in test [2], the “PDK-stimulated SGK activity” value is “inhibited SGK activation”. Moreover, the “effect on PDK-stimulated Akt activity (GSK-3 substrate phosphorylation)” value in test [1] (5 μM (or doses up to 5 μM)) is “greatest interference”. In addition, the “effect on PDK-stimulated Akt activity / Akt phosphorylation” value in test [1] is reported as “nearly eliminates”; in test [1] (listed as ADDL preparations), “near total inhibition”. In addition, the “relative effect of amyloid preparations (monomer, ADDL, fibril) on PDK-dependent Akt activation” value in test [1] is “more potent inhibitors”; in test [1] (listed as ADDL-containing Aβ preparations) it was “additively more injurious”; in test [1] (listed as ADDLs), “more toxic; also recorded: significantly prevented; also recorded: significantly greater inhibition”.

“Aβ25-35: fragment consisting of residues 25-35 of Aβ (GSNKGAIIGLM; Amyloid-beta protein 42; UniProt P05067 696-706, looked up, fragment)”: the “p-Akt (Ser473) and p-GSK-3 α/β levels after insulin” value in test [3] (extracellular peptide 24 hours, then insulin 0.1 μg/ml) was “not affected”.

“Fibrillar Aβ: fibrillar Aβ42 made in 10 mM HCl, 37° C., 24 hr”: the results for the “relative effect of amyloid preparations (monomer, ADDL, fibril) on PDK-dependent Akt activation” value in test [1] (listed as fibril-containing preparations) and in test [1] (listed as fibrillated preparations of Aβ) were “little toxicity; also recorded: least active” and “little effect”, respectively.

For the compound “Insulin: insulin used to stimulate the Akt pathway”, in test [3] (0.1 μg/ml, 15 min), the “levels of p-Akt (Ser473) and Akt activity (p-GSK-3 α/β)” value is listed as “significantly increased”.

For the compound “PTEN: Recombinant Phosphatase and Tensin Homolog, lipid phosphatase (R & D Systems)”, the “PDK stimulation of Akt activity after preincubation of the kinase beads” value in test [1] (preincubation 10.6 μg/ml, 15 min at 37° C., then washing) is listed as “eliminated any stimulation of Akt activity”.
